Experimental data: US8158389B2, “Products and methods for in vivo secretion of monatin” (priority 2005, dated 2012)

Key:
[1] = tested on: E. coli BL21DE3::aspCproApET30; assay: Growth (optical density) with CCCP, wild type control; assay type: cell-based, Escherichia coli; settings: 20 μM CCCP
Experimental: (§1) Single chloramphenicol-resistant colonies were purified by restreaking on appropriate selective media and single colonies were tested by PCR as previously described for the BW25113 knockout strains, to verify the presence of the emrB and acrAB knockouts. The effects of the emrB and acrAB knockouts on the EmrAB and AcrAB transporter systems respectively were determined by assessing the phenotype of the transport mutants using appropriate antibiotics and comparison to wild type control microorganisms as shown in Table 3.1 and Table 3.2 below.

[2] = tested on: E. coli BL21DE3ΔemrB::aspCproApET30; assay: Growth (optical density) with CCCP, emrB knockout mutant; assay type: cell-based, Escherichia coli; settings: 20 μM CCCP
Experimental: as §1

EmrAB efflux pump = target: T1, EmrAB efflux pump (Escherichia coli, UniProt P0AEJ0); assay: Monatin efflux per dry cell weight after induction of the EmrAB efflux pump with CCCP; assay type: cell-based; settings: for increase in monatin/dcw: 31 hours, vs control
T1 construct: endogenous in cells; host or cells: E. coli MG1655 with aspC/proA on pProNde; E. coli BL21 (DE3) with aspC/proA on pET30
T1 sequence (P02930 23-493): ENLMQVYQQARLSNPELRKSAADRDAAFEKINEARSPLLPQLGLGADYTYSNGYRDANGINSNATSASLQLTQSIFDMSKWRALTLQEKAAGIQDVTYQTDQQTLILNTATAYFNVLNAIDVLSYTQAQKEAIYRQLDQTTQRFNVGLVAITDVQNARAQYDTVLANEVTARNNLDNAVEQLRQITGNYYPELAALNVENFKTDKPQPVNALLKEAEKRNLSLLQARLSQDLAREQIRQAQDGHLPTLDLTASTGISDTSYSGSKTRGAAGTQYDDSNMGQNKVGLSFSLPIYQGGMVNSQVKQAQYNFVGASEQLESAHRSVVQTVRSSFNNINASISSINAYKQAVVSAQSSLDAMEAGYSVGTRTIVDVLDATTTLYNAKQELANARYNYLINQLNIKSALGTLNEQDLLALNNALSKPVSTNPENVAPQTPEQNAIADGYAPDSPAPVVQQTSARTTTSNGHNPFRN
T1 sequence (P0AEJ0 whole entry): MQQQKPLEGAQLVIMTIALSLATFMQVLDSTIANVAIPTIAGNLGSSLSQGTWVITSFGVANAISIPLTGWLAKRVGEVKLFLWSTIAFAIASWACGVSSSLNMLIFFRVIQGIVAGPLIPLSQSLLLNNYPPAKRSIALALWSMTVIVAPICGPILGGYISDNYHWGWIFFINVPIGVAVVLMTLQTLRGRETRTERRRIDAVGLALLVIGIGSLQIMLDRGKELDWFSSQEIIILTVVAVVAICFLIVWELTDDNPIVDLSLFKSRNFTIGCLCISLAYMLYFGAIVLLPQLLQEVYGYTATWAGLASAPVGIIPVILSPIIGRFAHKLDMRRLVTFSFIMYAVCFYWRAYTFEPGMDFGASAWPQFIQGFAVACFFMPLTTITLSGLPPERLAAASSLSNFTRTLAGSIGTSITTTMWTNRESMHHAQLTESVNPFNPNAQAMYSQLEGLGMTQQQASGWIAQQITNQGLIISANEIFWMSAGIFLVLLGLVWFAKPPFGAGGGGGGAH
T1 sequence (P27303 whole entry, further chain): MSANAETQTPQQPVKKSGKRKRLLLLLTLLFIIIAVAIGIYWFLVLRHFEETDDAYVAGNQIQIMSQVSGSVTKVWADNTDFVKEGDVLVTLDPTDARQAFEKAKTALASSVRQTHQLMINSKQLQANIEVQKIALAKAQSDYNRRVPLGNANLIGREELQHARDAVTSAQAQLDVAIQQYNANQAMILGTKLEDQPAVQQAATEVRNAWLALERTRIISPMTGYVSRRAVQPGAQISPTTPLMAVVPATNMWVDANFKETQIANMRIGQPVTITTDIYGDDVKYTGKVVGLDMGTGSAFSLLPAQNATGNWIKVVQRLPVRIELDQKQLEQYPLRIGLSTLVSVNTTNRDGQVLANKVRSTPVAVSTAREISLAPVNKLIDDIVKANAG
Experimental: The strains used for the experiment included E. coli MG1655 : : aspC/proA/pProNde and E. coli BL21 (DE3) : : aspC/proA/pET30. For inoculum, the E. coli strains were grown overnight at 37° C. and 250 rpm in Luria-Bertani (“LB”) medium with 50 μg/mL kanamycin.
For the experimental treatments, Trp-1+ glucose medium, a minimal medium that has been used for increased production of tryptophan in E. coli cells (Zeman, et al. Folia Microbiol. 35:200-204, (1990)), was prepared as follows. To 800 mL nanopure water the following reagents were added: 2 g (NH4)2SO4 and 13.6 g KH2PO4. The pH was adjusted to 7.0, the volume was increased to 948 mL, and the medium was autoclaved. Following sterilization, 0.2 g MgSO4.7H2O, 0.01 g CaCl2.2H2O, and 0.5 mg FeSO4.7H2O were added to the medium in a 1.8 mL volume followed by addition of 0.2 mL of Neidhardt's micronutrient solution. Neidhardt, F. C., et al., “Culture medium for Enterobacteria,” J. Bacteriol. 119:736-746 (1974). Neidhardt's medium includes (per liter): 0.18 g (NH4)6(MO7)24.4H2O, 1.24 g H3BO3, 0.36 g CoCl2.6H2O, 0.12 g CuSO4 (anhydrous), 0.8 g MnCl2.4H2O, and 0.14 g ZnSO4.7H2O. A 50% glucose solution was prepared separately and sterile-filtered. Forty mL of glucose solution and 10 mL of 1 M 3-Morpholinopropanesulfonic acid (“MOPS”) buffer were added to the base medium (950 mL) for a 1 L final volume.
Conditions for the treatments included 250 rpm agitation throughout and 37° C. up to induction, then, 30° C. following induction. At 0.5-0.6 OD600 nm, induction of the plasmid genes was initiated. At induction, 0.5 mM IPTG, 0.5% arabinose, 0.5 mM pyridoxine hydrochloride, and 0.2 mL of Balch's vitamins were added. […] Some treatments included 10 μM carbonyl cyanide 3-chlorophenylhydrazone (“CCCP”) addition to initial medium. One treatment included an additional 10 μM CCCP dose at 3.5 hours following induction. CCCP induces the EmrB efflux system. Samples for monatin analysis and dry cell weight determination were taken at 10, 15.5, 25.6 and 31 hours. Monatin analysis was preformed as described in Example 13.
Analyses of mixtures for monatin and tryptophan derived from in vitro or in vivo biochemical reactions were performed using a Waters/Micromass liquid chromatography-tandem mass spectrometry (“LC/MS/MS”) instrument including a Waters 2795 liquid chromatograph with a Waters 996 Photo-Diode Array (PDA) absorbance monitor placed in series between the chromatograph and a Micromass Quattro Ultima triple quadrupole mass spectrometer. LC separations were made using an Xterra MS C8 reversed-phase chromatography column, 2.1 mm×250 mm at 40° C. The LC mobile phase consisted of A) water containing 0.05% (v/v) trifluoroacetic acid and B) methanol containing 0.05% (v/v) trifluoroacetic acid.
The gradient elution was linear from 5% B to 35% B, 0-4 min, linear from 35% B to 60% B, 4-6.5 min, linear from 60% B to 90% B, 6.5-7 min, isocratic at 90% B 7-11 min, linear from 90% B to 95% B, 11-12 min, linear from 95% B to 5% B, 12-13 min, with a 5 min re-equilibration period between runs. The flow rate was 0.25 mL/min, and PDA absorbance was monitored from 200 nm to 400 nm. All parameters of the ESI-MS were optimized and selected based on generation of protonated molecular ions ([M+H]^+) of the analytes of interest, and production of characteristic fragment ions. The following instrumental parameters were used for LC/MS/MS Multiple Reaction Monitoring (“MRM”) analysis of monatin and tryptophan: Capillary: 3.5 kV; Cone: 40 V; Hex 1: 20 V; Aperture: 0 V; Hex 2: 0 V; Source temperature: 100° C.; Desolvation temperature: 350° C.; Desolvation gas: 500 L/h; Cone gas: 50 L/h; Low mass resolution (Q1): 12.0; High mass resolution (Q1): 12.0; Ion energy: 0.2; Entrance: −5 V; Collision Energy: 8; Exit: 1V; Low mass resolution (Q2): 15; High mass resolution (Q2): 15; Ion energy (Q2): 3.5; Multiplier: 650. […]

[3] = tested on: E. coli MG1655::pCECNde/4978 DAT/SEQ ID NO. 42; assay: R,R monatin excreted by E. coli with D-amino acid treatment; assay type: cell-based, Escherichia coli; settings: 5 mM D-amino acid treatment added 3 hours following induction
Experimental: For inoculum preparation, the E. coli MG1655 : : pCECNde/4978 DAT/SEQ ID NO. 42 were grown overnight at 37° C. with shaking at 250 rpm in Luria-Bertani (“LB”) medium with 25 μg/mL chloramphenicol. For the experimental treatments, Trp-1+glucose medium, a minimal medium that has been used for increased production of tryptophan in E. coli cells (Zeman et al. Folia Microbiol. 35:200-4, 1990), was prepared as follows. To 800 mL nanopure water the following reagents were added: 2 g (NH4)2SO4, 13.6 g KH2PO4. The pH was adjusted to 7.0, the volume was increased to 948 mL, and the medium was autoclaved. Following sterilization, 0.2 g MgSO4.7H2O, 0.01 g CaCl2.2H2O, and 0.5 mg FeSO4.7H2O were added to the medium in a 1.8 mL volume followed by addition of 0.2 mL of Neidhardt's micronutrient solution (Neidhardt F. C., Bloch P. L., and Smith D. F., 1974. Culture medium for Enterobacteria. J. Bacteriol. 119: 736-746). Neidhardt's medium includes (per liter): 0.18 g (NH4)6(MO7)24.4H2O, 1.24 g H3BO3, 0.36 g CoCl2.6H2O, 0.12 g CuSO4 (anhydrous), 0.8 g MnCl2.4H2O, and 0.14 g ZnSO4.7H2O. A 50% glucose solution was prepared separately and sterile-filtered. […]
The monatin from the 48 hour samples was concentrated via a solid phase extraction (“SPE”) column (see Example 27). Then, the R,R and S,S stereoisomers were analyzed by the method of Example 13.

[4] = E. coli BL21 (DE3)::aspCproA pET30, 10 μM CCCP
[5] = E. coli BL21 (DE3)::aspCproA pET30, 10 μM CCCP + 10 μM CCCP
[6] = E. coli MG1655::aspCproA pProNde, 10 μM CCCP

Row | Structure (SMILES) | Optical Density @ 600 nM, 6 hours [1] | Optical Density @ 600 nM, 24 hours [1] | decrease in growth ([2]; deletion strain) | Optical Density @ 600 nM, 6 hours ([2]; emrB knockout mutant) | Optical Density @ 600 nM, 24 hours ([2]; emrB knockout mutant) | increase in monatin/dcw (EmrAB efflux pump; E. coli BL21 (DE3)::aspC proA pET30, one addition (10 μM) of CCCP) | increase in monatin/dcw (EmrAB efflux pump; E. coli BL21 (DE3)::aspC proA pET30, two additions (20 μM) of CCCP) | Monatin/dry cell weight at run hour 10 (EmrAB efflux pump; [4]) | Monatin/dry cell weight at run hour 15.5 (EmrAB efflux pump; [4]) | Monatin/dry cell weight at run hour 25.6 (EmrAB efflux pump; [4]) | Monatin/dry cell weight at run hour 31 (EmrAB efflux pump; [4]) | Monatin/dry cell weight at run hour 10 (EmrAB efflux pump; [5]) | Monatin/dry cell weight at run hour 15.5 (EmrAB efflux pump; [5]) | Monatin/dry cell weight at run hour 25.6 (EmrAB efflux pump; [5]) | Monatin/dry cell weight at run hour 31 (EmrAB efflux pump; [5]) | Monatin/dry cell weight at run hour 15.5 (EmrAB efflux pump; [6]) | Monatin/dry cell weight at run hour 25.6 (EmrAB efflux pump; [6]) | Monatin/dry cell weight at run hour 31 (EmrAB efflux pump; [6]) | increase in monatin/dcw (EmrAB efflux pump; E. coli MG1655::aspCproA pProNde) | 48 hour Monatin/dry cell wt., Total Monatin [3]
1 | N#CC(C#N)=NNc1cccc(Cl)c1 [CCCP, carbonyl cyanide 3-chlorophenylhydrazone] | 0.034 | 1.113 | eighty fold/ninety nine percent decrease in growth | 0.024 | 0.014 | greater than 1.8 fold | > 3.5 fold | 6.4 mg/g | 22.5 mg/g | 34.3 mg/g | 33.0 mg/g | 16.2 mg/g | 38.0 mg/g | 52.1 mg/g | 64.2 mg/g | 0.7 mg/g | 6.7 mg/g | 12.4 mg/g | 2 fold | –
2 | C[C@@H](N)C(=O)O [D-alanine] | – | – | – | – | – | – | – | – | – | – | – | – | – | – | – | – | – | – | – | 0.33 mg/g
3 | N[C@H](CCC(=O)O)C(=O)O [D-glutamate] | – | – | – | – | – | – | – | – | – | – | – | – | – | – | – | – | – | – | – | 0.47 mg/g
